Source: a melting point compilation (Tetko et al.; mined from patent text by program, amines drawn as free bases though some values may be those of a salt)

`COc1cc(Nc2ncc([N+](=O)[O-])c(-c3ccccc3)n2)cc(OC)c1OC` gave a melting point of 103 to 105 °C. With `CC1CC(C(=O)Nc2ccccc2)(C(=O)OC(C)(C)C)N(C(=O)CNC(=O)OC(C)(C)C)C1c1ccccc1` (configuration not stated) the melting point was 182 °C. For `CN(C)C=Cc1ccc([N+](=O)[O-])c(OCc2ccccc2)c1`, the melting point was 111 to 114 °C. `CCNc1nc(CC)c(C(=O)c2ccc(N)c([N+](=O)[O-])c2)s1` showed a melting point of 210 to 212 °C. In the case of `O=C(c1ccccc1)c1ccc(-c2nc(COc3ccc(CCCCn4ccnc4)cc3)co2)cc1`, the melting point is reported as 91 to 92 °C. With `CC(C)(C)C(NC(=O)c1ccc(Cl)cc1)NC(Nc1cccnc1)=C(C#N)C#N` (configuration not stated) the melting point was 213 to 214 °C. Molecule `CCn1c(=O)c2[nH]c(C(F)=Cc3ccccc3)nc2n(CC)c1=O` has a melting point greater than 280 °C. With `CN(C[C@H](O)[C@@H](O)[C@H](O)[C@H](O)CO)C(=O)CCCO` the melting point was 78 to 79 °C. For `O=C(CC1CCCCC1)Nc1c(Cl)ccc2nc(NC[C@@H](O)CO)ccc12`, the melting point was 155 to 159 °C. Work on `CCCc1c(OCCCSc2ccc3c(=O)cc(C(=O)O)[nH]c3c2CCC)ccc(C(C)=O)c1O` yielded a melting point of 192 to 194 °C. With `N#Cc1ccc(-c2ccc(C#N)c(N)c2)cc1N` the melting point was 243 °C. Molecule `COC(=O)C1=C(C)NC(C)=C(C(=O)OCCN2CCN(C(c3ccc(Cl)cc3)c3ccc(Cl)cc3)CC2)C1c1cccc([N+](=O)[O-])c1` (configuration not stated) has a melting point of 83 to 87 °C. `COC(=O)c1ccc(-c2n[nH]c3ccccc23)o1` showed a melting point of 157 to 159 °C. Work on `Cc1ccc(C)n1Nc1nnc(N2CCOCC2)c2ccccc12` yielded a melting point of 255 to 260 °C. `C=C(C)C(=O)Oc1ccc(C(=O)c2ccccc2)cc1` showed a melting point of 69.5 to 70.5 °C. In the case of `CC[C@@H]1N(c2ccc(C#N)c(Cl)c2)C(=O)C[C@@]1(O)C1CC1`, the melting point is reported as 128 to 132 °C. `CC(=O)O[C@H]1C[C@@H]2CN(C(=O)c3ccc(NC(=O)c4ccccc4-c4ccccc4)cc3)c3ccccc3CN2C1` showed a melting point of 116 to 118 °C. With `CN(C(=O)C(C)(C)C)C1(c2ccccc2)CCNCC1` the melting point was 125 °C. Work on `CCCCOCCOc1ccc(-c2ccc3c(c2)C=C(C(=O)Nc2ccc(S(=O)Cc4nccn4CCCC(=O)NC)cc2)CCN3CC(C)C)cc1` (configuration not stated) yielded a melting point of 159 to 161 °C. With `CC(C)c1nc(COCc2ccccc2)n(CF)c1Sc1cc(Cl)cc(Cl)c1` the melting point was 115 to 117 °C. Molecule `Nc1ccc(Br)cc1C(=O)NCCCn1ccnc1` has a melting point of 154 to 156 °C. In the case of `COC(=O)Cn1c(C(=O)O)cc2cc(C)cc(C)c21`, the melting point is reported as 221 to 223 °C. For `NC(CCc1ccccc1CP(=O)(O)O)C(=O)O` (configuration not stated), the melting point was 247 to 249 °C. `O=C(OC1CCCCC1=O)c1cccc2ccccc12` (configuration not stated) gave a melting point of 94 to 95 °C. `COC(=O)[C@@H](NC(=O)OCc1ccccc1)[C@H](O)c1ccccc1` showed a melting point of 107 to 108 °C. For `CCc1ccc(-n2c(-c3ccccn3)nc(SC)c(C#N)c2=O)cc1`, the melting point was 172 to 175 °C. In the case of `Cc1ccc(-c2nnc(N3CCC(O)C3)nc2-c2ccc(C)cc2)cc1` (configuration not stated), the melting point is reported as 147 to 150 °C. For `CC(Oc1ccc(N)c([N+](=O)[O-])c1)c1cc(F)ccc1Cl` (configuration not stated), the melting point was 110 °C. Molecule `COC(=O)Nc1cc(-c2nc(-c3ccco3)no2)ccc1Cl` has a melting point of 200 to 201 °C. In the case of `FCCCCNc1cn(-c2cccnc2)nc1Cl`, the melting point is reported as 82 to 83 °C. In the case of `N#CCCNC(=O)c1cccc(-c2cccc3c(F)c(Cc4cccc(C(F)(F)F)c4)sc23)c1`, the melting point is reported as 66 to 67 °C. `CCc1nc(NCC(C)O)c2c(n1)c(C)nn2C` (configuration not stated) gave a melting point of 116 to 119 °C. Work on `CCc1cnc2c(NC(=O)c3c(Cl)cccc3Cl)cccc2c1CC(C)(C)O` yielded a melting point of 203 to 204 °C. With `CS(=O)(=O)OCC(CC1CCCCC1)c1ccc(Cl)cc1Cl` (configuration not stated) the melting point was 105 °C. `Cn1ncnc1COc1nn2c(-c3ccccc3F)nnc2cc1C1(F)CCC1` showed a melting point of 154 to 162 °C. For `Cn1nc2nc(C(C)(C)C)[nH]c(=O)c2c1N=Cc1ccccc1`, the melting point was 250 to 253 °C. Molecule `O=Cc1cc(Br)ccc1C(=O)O` has a melting point of 202 °C. Molecule `COc1cc2c(c(OC)c1OC)CCC(C(=O)Cc1cccc(F)c1)C2C#N` (configuration not stated) has a melting point of 120 to 122 °C. `COC(=O)[C@@H](NC(=O)c1ccc(F)c(Br)c1)[C@@H](C)O` gave a melting point of 73 to 74 °C. In the case of `CC(C)Oc1c(C(=O)Nc2nnn[nH]2)sc2c1CCCC2`, the melting point is reported as 223 to 225 °C. Molecule `CCOC(=O)N1CCN(c2ccc(C(=O)CCc3ccc(N)cc3)cc2)CC1` has a melting point of 106 to 107 °C. With `CC(C)(O)C(=O)N[C@H]1CC[C@H](CCN2CCN(c3nccc4c3CCO4)CC2)CC1` the melting point was 201 °C. In the case of `CC(C)(C)OC(=O)Nc1scc(C2CC2)c1C(=O)O`, the melting point is reported as 175 to 176 °C. In the case of `CN1c2ccccc2N(C(=O)CNC(C)(C)C)c2ccccc2S1(=O)=O`, the melting point is reported as 143 to 145 °C. For `Cc1noc(C)c1C(C)(O)c1ccoc1` (configuration not stated), the melting point was 88 to 90 °C. In the case of `Cc1ccoc1C(=O)Nc1ccc(-n2nc(C(F)(F)F)cc2C(F)(F)F)cc1`, the melting point is reported as 119 to 120 °C. For `Cn1nnc2sc([N+](=O)[O-])cc2c1=O`, the melting point was 164 to 168 °C. Work on `CN(C)C=Cc1ccc([N+](=O)[O-])c2[nH]ncc12` yielded a melting point of 255 °C. Work on `O=C(COc1ccc(CCNS(=O)(=O)c2ccc(Cl)cc2)cc1)Nc1nnn[nH]1` yielded a melting point of 228 to 230 °C. In the case of `CC(C)CC1(CCCCN2CCN(c3ccccn3)CC2)C(=O)Nc2ccccc21` (configuration not stated), the melting point is reported as 158 to 159 °C. `CC(C)(C)C(=O)Cn1cncn1` gave a melting point of 62 to 64 °C. For `CSc1cncc(Oc2ccc(Cl)c(Cl)c2)c1`, the melting point was 55 °C. `c1cc(CN2CCCCC2)cc(OCCCNc2nccc3ccccc23)c1` showed a melting point of 103 to 105 °C. For `O=C1C(=O)N(CC(F)(F)F)c2ccccc21`, the melting point was 161 to 163 °C. With `CS(=O)(=O)c1ccc(-c2cc(F)c(F)cc2-c2ccc(F)cc2)cc1` the melting point was 148 °C. Work on `Cc1cnc(NC(=O)[C@H]2[C@H](c3ccccc3)C2(C)C)s1` (relative stereo) yielded a melting point of 132 to 135 °C. With `COC(=O)c1cc2ccc(OCCN(C)C(=O)OC(C)(C)C)cc2oc1=O` the melting point was 128 to 129 °C. Molecule `COc1cc2c(=O)n(CCN3CCCCC3)c3c4cc5c(cc4nnc3c2cc1OC)OCO5` has a melting point of 294 to 295 °C. Molecule `CCc1nnc2ccc(-c3ccc(C(F)(F)F)cc3)nn12` has a melting point of 194 to 196 °C. For `COc1ccc(C(=O)Nc2ccc(F)cc2)cc1NC(=S)Nc1cc(Cl)cc(Cl)c1`, the melting point was 175 to 178 °C. For `CCCCOC(=O)C(=C1SC=CS1)S(=O)(=O)C(C)C`, the melting point was 67 to 69 °C. `CCCCCCCC(=O)c1ccc(CCO)cc1` gave a melting point of 47.4 °C. `Nc1cc(C(F)(F)F)ccc1N(N)C=O` gave a melting point of 121 to 122 °C. `CC(C)c1ccc(C(=O)C(c2ccccc2)C2CCCC2)c(C(C)C)c1OS(N)(=O)=O` (configuration not stated) gave a melting point of 142 to 143 °C. `O=C(NCc1ccc(Cl)cc1)c1cn(-c2ccccn2)c2oc(CCl)cc2c1=O` gave a melting point of 224 to 227 °C. In the case of `O=c1[nH]c2ccc(Cl)cc2c(=O)n1CCCS`, the melting point is reported as 255 to 257 °C. In the case of `O=C(NN=Cc1ccc2ccccc2n1)c1ccccc1`, the melting point is reported as 171 °C. Work on `CN(C)S(=O)(=O)c1ccc2c(c1)S(=O)(=O)NC2=O` yielded a melting point of 198 to 200 °C. Work on `O=c1oc2ccccc2nc1-c1cc(O)c(O)c([N+](=O)[O-])c1` yielded a melting point of 120 °C. Work on `CC(=O)N1C(=O)N(c2cc(Cl)cc(Cl)c2)C(=O)C1=Cc1ccc(C#N)cc1` yielded a melting point of 212 °C. With `CC(C)(C)c1cc(NC(=O)Nc2ccccc2C(=O)NC2CCN(C(c3ccccc3)c3ccccc3)CC2)cc(C(C)(C)C)c1O` the melting point was 218 to 225 °C. Work on `O=C(NCC(=O)N1c2ccccc2N(Cc2ccccc2)C(=O)[C@H]2CCC[C@H]21)c1ccccc1` (relative stereo) yielded a melting point of 201 to 203 °C. In the case of `COc1cc(C(=O)c2ccnc3ccccc23)cc([N+](=O)[O-])c1O`, the melting point is reported as 246 to 248 °C. Work on `c1ccc(N2CCN(CCc3nnn[nH]3)CC2)cc1` yielded a melting point of 190 to 194 °C. For `COc1cc(NC(=O)Oc2ccccc2)ccc1S(=O)(=O)n1c(=O)n(C2CCCCC2)c2cc(Cl)ccc21`, the melting point was 236 °C. `O=Cc1[nH]cc2c1OCCO2` gave a melting point of 147 °C. With `COc1ccc(N(C(C)=O)S(=O)(=O)c2ccc(C)cc2)c([N+](=O)[O-])c1` the melting point was 172 to 174 °C. In the case of `Nc1nc(C(=Cc2cccc3ccccc23)C(=O)O)cs1`, the melting point is reported as 220 °C. `COC(=O)C1CC(=O)Nc2ccccc2C1` (configuration not stated) gave a melting point of 114 to 115 °C. Work on `CCOC(=O)n1c(=S)[nH]c2ccc(Br)cc2c1=O` yielded a melting point of 214 °C. Molecule `Cc1nnc(CN(C)C)n1-c1ccc(Br)cc1C(=O)c1ccccn1` has a melting point of 127 to 128 °C. `CCOC(=O)Nc1c(C(=O)O)oc2cc(OCc3ccccc3)ccc12` gave a melting point of 198 °C. With `CCCCC1CCCC2=C1C(=O)c1cc(C)c(C)cc1C2=O` (configuration not stated) the melting point was 88 to 90 °C. `CC(=O)c1c(Br)[nH]c(-c2ccncc2)c1C` gave a melting point of 205 to 206 °C. Molecule `COC(=O)C=C(C)NCc1ccccc1` has a melting point of 36 to 37.5 °C. Work on `CCCCn1c(=O)c2nn(S(=O)(=O)c3cc(Cl)c(Cl)s3)cc2n(CCCC)c1=O` yielded a melting point of 163 to 166 °C. Molecule `COc1ccc2c(c1OC(C)=O)NC(OC)C1CCCN1C2=O` (configuration not stated) has a melting point of 143 to 145 °C. For `CCOC(=O)c1ccccc1OC`, the melting point was 75 to 76 °C. `O=C(O)C(S)=Cc1ccc(C(F)(F)F)o1` showed a melting point of 158 °C. For `COC(=O)c1ccc(C#CCc2cccc3c2SCCC3(C)C)cc1`, the melting point was 92 °C. `Cc1cc(C)cc(Nn2c(-c3ccccc3)c(C)[nH]c2=S)c1` showed a melting point of 240 to 242 °C. With `CCc1ccccc1NC=C1C(=O)N(c2cccc(-c3nnn[nH]3)c2)N=C1C` the melting point was 262 °C. In the case of `CCCCCCCCCCCCCCCC(=O)CC(=O)OC`, the melting point is reported as 40 to 41 °C. Molecule `COCCn1cnc2cc(CN3CCN(C(c4ccccc4)c4ccccc4)CC3)ccc21` has a melting point of 162 °C. `OCc1ccc2ccccc2c1Br` gave a melting point of 101 to 102 °C. For `CC(C)CCSC1=C(O)CC(C)(C)CC1=O`, the melting point was 59 to 61 °C. `CN(C)C(CC(F)C(=O)c1ccccc1)N1CCC(O)(c2ccc(Cl)cc2)CC1` (configuration not stated) gave a melting point of 160 to 163 °C. Molecule `CCOCCNc1nc(C)c(CCO)c(=O)n1C` has a melting point of 194 °C. `N#Cc1nn(-c2c(Cl)cc(C(F)(F)F)cc2Cl)c(N)c1-c1ccsc1C(F)(F)F` showed a melting point of 162 °C. With `CCOC(=O)Nc1ccc(-c2c[nH]c(=O)cn2)cc1` the melting point was 260 to 262 °C. `Cc1cccc(NC(=N)N(C)C)c1-c1ccccc1` gave a melting point of 181 to 182 °C. `COc1ccc(S(=O)(=O)n2ccc3ccnc(-c4ccc(C(F)(F)F)cc4)c32)cc1` gave a melting point of 143 to 145 °C.
